From patent US20100022613A1, “Compounds Having CRTH2 Antagonist Activity” (Oxagen Limited, priority 2008, published 2010)

How the values were obtained:
CRTH2 receptor = molecular target: T1, CRTH2 receptor (Homo sapiens, UniProt Q9Y5Y4); test: Radioligand binding assay ([3H]PGD2) on CHO/CRTH2 cell membranes; conditions: [3H]PGD2 binding
T1 construct: expressed in transfected cells; host or cells: Chinese Hamster Ovary (CHO) cells, membranes
T1 sequence (Q9Y5Y4 1-395): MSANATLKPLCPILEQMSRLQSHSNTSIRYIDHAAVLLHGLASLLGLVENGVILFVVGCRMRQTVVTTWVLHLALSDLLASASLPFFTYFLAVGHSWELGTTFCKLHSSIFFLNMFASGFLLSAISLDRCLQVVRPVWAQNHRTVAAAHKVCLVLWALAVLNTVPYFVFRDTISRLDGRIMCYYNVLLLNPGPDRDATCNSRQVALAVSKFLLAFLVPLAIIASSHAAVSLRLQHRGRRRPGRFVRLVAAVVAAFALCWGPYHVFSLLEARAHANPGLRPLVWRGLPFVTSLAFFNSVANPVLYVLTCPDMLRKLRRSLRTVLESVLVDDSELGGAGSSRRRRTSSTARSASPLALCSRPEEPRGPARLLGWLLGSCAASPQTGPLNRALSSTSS
Description: Chinese Hamster Ovary cells were transfected with CRTH2 or DP receptors (CHO/CRTH2 and CHO/DP) and were maintained in culture in a humidified atmosphere at 37° C. (5% CO2) in Minimum Essential Medium (MEM) supplemented with 10% foetal bovine serum, 2 mM glutamine, and 1 mg ml^−1 active G418. The cells were passaged every 2-3 days. For radioligand binding assay, cells were prepared in triple-layer flasks or in 175 cm^2 square flasks (for membrane preparation).
Membranes were prepared either from CHO/CRTH2 and CHO/DP cells, or from platelets (as a source of TP receptors). CHO cells grown to confluency were washed with PBS and detached using a Versene solution (15 ml per flask). When the cells were grown in 175 cm^2 square flask, they were collected by scrapping in PBS. The cell suspensions were centrifuged (1,700 rpm, 10 min, 4° C.) and resuspended in 15 ml of buffer (1× HBSS, supplemented with 10 mM HEPES, pH 7.3). Cell suspensions were then homogenised using an Ultra Turrax at setting 4-6 for 20 s. The homogenate was centrifuged at 1,700 rpm for 10 min and the supernatant was collected and centrifuged at 20,000 rpm for 1 h at 4° C. The resulting pellet was resuspended in buffer and stored at −80° C. in aliquots of 200-500 μl. The protein concentration was determined by the method of Bradford (1976), using bovine serum albumin as standard. The platelets were washed by centrifugation at 600×g for 10 min and resuspended in ice-cold assay buffer (10 mM Tris-HCl, pH 7.4, 5 mM Glucose, 120 mM NaCl, 10 μM indomethacin) and directly centrifuged at 20,000 rpm for 30 min at 4° C. The resulting pellet was treated as described above.
[^3H]PGD2 (160 Ci/mmol) binding experiments were performed on membranes prepared as described above. Assays were performed in a final volume of 100 μl of buffer (1× HBSS/HEPES 10 mM, pH 7.3). Cell membranes (15 μg) were preincubated at room temperature with varying concentration of competing ligand for 15 min. [^3H]PGD2 was then added and the incubation continued for a further one hour at room temperature. The reaction was terminated by the addition of 200 μl ice-cold assay buffer to each well, followed by rapid filtration through Whatman GF/B glass fibre filters using a Unifilter Cell harvester (PerkinElmer Life Sciences) and six washes of 300 μl of ice-cold buffer. The Unifilter plates were dried at room temperature for at least 1 h and the radioactivity retained on the filters was determined on a Beta Trilux counter (PerkinElmer Life Sciences), following addition of 40 μl of Optiphase Hi-Safe 3 (Wallac) liquid scintillation. Non specific binding was defined in the presence of 10 μM unlabelled PGD2. Assays were performed in duplicate.

[1] = test system: PGD2-induced eosinophil shape change; test: Human whole blood eosinophil shape change assay (PGD2-induced); assay type: cell-based; conditions: 10 nM PGD2, read-out: IC50 for the effect on 10 nM PGD2-induced eosinophil shape change in whole blood
Description: Compounds 1-6 were assayed for their effect on PGD2 induced eosinophil shape change.
Compounds (1 μl, 200× final concentration) were added directly to 200 μl whole blood, mixed well and incubated for 15 min, 37° C., 5% CO2. After this time, cell shape was fixed by addition of 300 μl Cytofix™ buffer (BD Biosciences), 15 min on ice. 10 ml RBC lysis buffer was added to the fixed cells, incubated 5 min, at room temperature and centrifuged, 300×g for 5 min. Supernatant (containing lysed red cells) was removed and the lysis step was repeated. Leukocytes were resuspended in 250 μl RPMI/10% FCS and shape change analysed by FACS. Eosinophils were gated out based on their autofluorescence and 2000 eosinophil events were counted per sample. Data were analysed in triplicate.

Ki (CRTH2 receptor)	IC50 [1]	Structure (SMILES)
1 nM	1 nM	Cc1c(Cc2ccc(S(=O)(=O)Cc3ccccc3)cc2)c2cc(F)ccc2n1CC(=O)O [Compound 1, 2-(3-(4-(Benzylsulfonyl)benzyl)-5-fluoro-2-methyl-1H-indol-1-yl)acetic acid]
5 nM	–	Cc1c(Cc2ccc(S(=O)(=O)Cc3ccc(Cl)cc3)cc2)c2cc(F)ccc2n1CC(=O)O [Compound 2, 2-(3-(4-(4-Chlorobenzylsulfonyl)benzyl)-5-fluoro-2-methyl-1H-indol-1-yl)acetic acid]
3 nM	77 nM	Cc1c(Cc2cccc(S(=O)(=O)Cc3ccccc3)c2)c2cc(F)ccc2n1CC(=O)O [Compound 3, 2-(3-(3-(Benzylsulfonyl)benzyl)-5-fluoro-2-methyl-1H-indol-1-yl)acetic acid]
1 nM	–	Cc1c(Cc2cccc(S(=O)(=O)Cc3ccc(F)cc3)c2)c2cc(F)ccc2n1CC(=O)O [Compound 4, 2-(5-Fluoro-3-(3-(4-fluorobenzylsulfonyl)benzyl)-2-methyl-1H-indol-1-yl)acetic acid]
3 nM	12 nM	Cc1c(Cc2ccccc2S(=O)(=O)Cc2ccccc2)c2cc(F)ccc2n1CC(=O)O [Compound 5, 2-(3-(2-(Benzylsulfonyl)benzyl)-5-fluoro-2-methyl-1H-indol-1-yl)acetic acid]
3 nM	3 nM	Cc1c(Cc2ccc(S(=O)(=O)Cc3ccc(F)cc3)cc2)c2cc(F)ccc2n1CC(=O)O [Compound 6, 2-(3-(4-(4-Fluorobenzylsulfonyl)benzyl)-5-fluoro-2-methyl-1H-indol-1-yl)acetic acid]
